Measurements taken from patent EP4781986A1, “PHARMACEUTICAL COMPOSITION HAVING IMPROVED PHARMACOKINETIC PROPERTIES” (Sichuan Purity Pharmaceutical Co., Ltd., priority 2023, dated 2025).

What was measured:
[1] = PK properties in SD rats with different concentrations of alkyl glycoside (0.05% and 5% DDM); assay type: in vivo; conditions: for Tmax(DDM 0.05%)/ Tmax(DDM 0%): 0.05% DDM vs without DDM; for Tmax(DDM 5%)/ Tmax(DDM 0%): 5% DDM vs without DDM; for Tmax: rat, in vivo
From the text: During preparation of a test sample in the Test Example 7, drug solution groups with 0.05% and 5% dodecyl-β-D-maltosides (DDM) were established and prepared in parallel, so as to compare and observe changes of PK properties in rats administered with the drug solution groups with two different concentrations of dodecyl-β-D-maltosides (DDM).

[2] = PK properties in SD rats with or without 0.2% alkyl glycoside (DDM); assay type: in vivo; conditions: for Tmax shortened by: 0.2% DDM vs without DDM; for Tmax(DDM 0.2%)/ Tmax(DDM 0%): 0.2% dodecyl-β-D-maltoside (DDM) vs without DDM; for Tmax: rat, in vivo
From the text: During preparation of a test sample in the Test Example 5, a drug solution group with 0.2% dodecyl-β-D-maltoside (DDM) was also established and prepared in parallel, so as to compare and observe changes of PK properties in rats administered with the drug solution group with 0.2% dodecyl-β-D-maltoside (DDM) and the drug solution group without dodecyl-β-D-maltoside (DDM).

Plasma of human = assay: plasma protein binding rate test, equilibrium dialysis (human); assay type: in vitro ADME; conditions: 1 µM, 37°C, 6 hours
Method: Protein binding rates of the compound of the present invention in plasma of rat, monkey and human were determined by an equilibrium dialysis method. Tested compounds of the present invention were the compounds in Examples 6 and 8.
3.1 A dry dialysis membrane was rinsed with ultrapure water for 2-3 times, and then soaked in a phosphate buffer for 1 hour for later use. Polytetrafluoroethylene module was soaked in 20% ethanol for 30 minutes, and then surface moisture was dried with dust-free paper for later use. The pretreated dialysis membrane was assembled into a dialysis plate according to the product specification, and one side (receptor compartment) of an osmotic membrane in each dialysis well was added with 100 µL of receptor fluid (100 mM phosphate buffer solution plus 0.002% Tween 80).
3.2 The plasma was put into a centrifuge tube, a working solution of a tested substance was added into the plasma, wherein a final concentration was 1 µM, and the mixture was turned upside down and mixed evenly (this step was carried out in ice bath). 20 µL of drug-containing plasma each was taken, and was respectively transferred to a 96-well sample plate according to two parts in parallel, and stored in a refrigerator at -20°C as a T0 sample.
3.3 Another 100 µL of the above drug-containing plasma was transferred to the other side (sample compartment) of the membrane in the dialysis device according to two parts in parallel, and incubated under vibration at a constant temperature of 37°C for 6 hours. […]
A plasma protein binding rate and a recovery rate of the compound in plasma were calculated by the following formulas: dissociation percentage (%) = CB /CA; [formula] plasma protein binding rate (fb%) = 1−dissociation percentage (%); [formula] recovery rate (%) = (CB+CA)/CT0 [formula] wherein CB was a concentration of the compound in the receptor fluid after equilibrium dialysis; CA was a concentration of the compound in the drug-containing plasma after equilibrium dialysis; and CT0 was an initial concentration of the compound in plasma.

[3] = stability test in liver microsomes (monkey); assay type: in vitro ADME; conditions: Monkey liver microsomes
Method: The stability of the compound of the present invention in liver microsomes of rat, monkey and human was determined. Tested compounds of the present invention were the compounds in Examples 6 and 8 , and a control drug was Zavegepant.
3.2 An appropriate amount of liver microsome solution was transferred into a 1 mL 96-deep-well plate, added with a tested drug liquid (or a probe substrate solution), and pre-incubated in a thermal mixer at 37°C for 5 minutes. Two parts of mixed solutions were taken out from the system and added with 1×PBS to replace NADPH, and the mixed solutions were taken out at 0 and 60 minutes respectively, and added with methanol (containing an internal standard) to terminate the reaction. In the remaining mixed system, each well was added with NADPH to start the reaction. In the tested substance group, mixed solutions were taken out from the system at 0, 5, 15, 30, 45 and 60 minutes, and in the control group, mixed solutions were taken out from the system at 0, 30 and 60 minutes, and the mixed solutions were added methanol (containing an internal standard) to terminate the reaction. All samples of the terminated reaction were mixed evenly and centrifuged in a centrifuge at 3800 rpm for 15 minutes, and the supernatant was taken for LC-MS/MS analysis.
A peak area was determined by an extracted ion chromatogram. A slope value k was determined by linear regression of a remaining percentage of a parent drug relative to a natural logarithm of an incubation time curve. According to the slope, in-vitro half-life periods (t1/2) were respectively calculated, and in-vitro intrinsic clearance rates (CLint, represented by µL/min/mg protein) were calculated. Calculation formulas were as follows: t1/2 = ln2/k = 0.693/k; and CLint = 0.693/t1/2 /liver microsome protein concentration [formula]

[4] = intranasal, 0.05% alkyl glycoside vs without
[5] = intranasal, 5% alkyl glycoside vs without

Cc1cc(C[C@@H](NC(=O)N2CCC(c3cc4c([nH]c3=O)SCCC4)CC2)C(=O)N2CCN(C3CCN(C)CC3)CC2)cc2cn[nH]c12 [Example 6, (R)-N-(3-(7-methyl-1H-indazole-5-yl)-1-(4-(1-methylpiperidine-4-yl)piperazine-1-yl)-1-oxopropan-2-yl)-4-(7-oxo-3,4,7,8-tetrahydro-2H-thiopyrano[2,3-b]pyridine-6-yl)piperidine-1-formamide]
Tmax(DDM 0.05%)/ Tmax(DDM 0%) ([1]; intranasal): 25.0%
Tmax shortened by [1, 4]: 75%
Tmax(DDM 5%)/ Tmax(DDM 0%) ([1]; intranasal): 8.3%
Tmax shortened by [1, 5]: 91.7%
Tmax ([1]; intranasal, 0.05% alkyl glycoside): 15 min
Tmax ([1]; intranasal, 5% alkyl glycoside): 4.98 min
Tmax ([1]; intranasal, without alkyl glycoside): 60 min
Tmax shortened by ([2]; intranasal): 83.3%
Tmax(DDM 0.2%)/ Tmax(DDM 0%) ([2]; intranasal): 16.7%
Tmax ([2]; intranasal, 0.2% DDM): 10 min
Tmax ([2]; intranasal, not added with DDM (0%DDM)): 60 min
fb (%) (Plasma of human): 76.7%
CLint [3]: 0.8 µL/min/mg
% remaining (60 min) [3]: 96.9%

Cc1cc(C[C@@H](NC(=O)N2CCC(c3cc4c([nH]c3=O)SCC4)CC2)C(=O)N2CCN(C3CCN(C)CC3)CC2)cc2cn[nH]c12 [Example 8, (R)-N-(3-(7-methyl-1H-indazole-5-yl)-1-(4-(1-methylpiperidine-4-yl)piperazine-1-yl)-1-oxopropan-2-yl)-4-(6-oxo-2,3,6,7-tetrahydrothieno[2,3-b]pyridine-5-yl)piperidine-1-formamide]
Tmax ([1]; Sprague-Dawley, inhaled or intranasal, 0.05% alkyl glycoside): 10 min
Tmax ([1]; Sprague-Dawley, inhaled or intranasal, 5% alkyl glycoside): 4.98 min
Tmax ([1]; Sprague-Dawley, inhaled or intranasal, without alkyl glycoside): 12 min
Tmax(DDM 0.05%)/ Tmax(DDM 0%) ([1]; intranasal): 79.9%
Tmax shortened by [1, 4]: 20%
Tmax(DDM 5%)/ Tmax(DDM 0%) ([1]; intranasal): 39.7%
Tmax shortened by [1, 5]: 60%
Tmax ([2]; Sprague-Dawley, inhaled or intranasal, 0.2% DDM): 10 min
Tmax ([2]; Sprague-Dawley, inhaled or intranasal, not added with DDM (0%DDM)): 12.5 min
Tmax shortened by ([2]; intranasal): 20.1%
Tmax(DDM 0.2%)/ Tmax(DDM 0%) ([2]; intranasal): 79.9%
fb (%) (Plasma of human): 64.1%
% remaining (60 min) [3]: 61.6%
